# According to patent publication US4257941A, “Polycyclic nitrogen-containing compounds” (BASF Aktiengesellschaft, priority 1976, dated 1981):
# Legend:
# [1] = tested on: barley; assay: Growth height of barley, greenhouse (Example 9); format: in vivo, barley (Villa); settings: for Plant height relative: control 100
# Description: (§1) In the greenhouse, the four cereals wheat ("Opal" variety), rye ("Petkuser"), barley ("Villa") and oats ("Flamingskrone") were sown in plastic dishes 11.5 cm in diameter in a sandy loam adequately supplied with nutrients. The active ingredients were applied at various rates to the soil and to the leaves. When applied to the soil, the active ingredient were sprayed onto the surface of the soil on the day of sowing; in the case of leaf treatment, the leaves were sprayed in the usual manner at a growth height of the plants of 10 cm. During the 18 day growth period, the treated plants grew much more slowly than the untreated control, a fact later confirmed by measurements of the stem length. Measurements were taken of 100 plants from each series.
# (§2) The prior art agent used for comparison purposes was N-2-chloroethyl-N,N,N-trimethylammonium chloride (CCC; German Printed Application DAS No. 1,294,734).
# [2] = tested on: oats; assay: Growth height of oats, greenhouse (Example 10); format: in vivo, oats (Flamingskrone); settings: for Plant height relative: control 100
# Description: as §1, §2
# [3] = tested on: cotton; assay: Induction of flowering and growth height of cotton, hydroponic (Example 18); format: in vivo; settings: for Shoot length: 4 weeks; for No. of squares per vessel (3 plants): control 0, average of 3 vessels; for Shoot length rel.: control 100
# Description: Cotton plants were subjected to hydroponic treatment under the same conditions as in Example 16. The active ingredients were added (1.25 mg/vessel=0.3 ppm and 5 mg/vessel=1.25 ppm) at a height of the plant of 15 to 18 cm. […] The results below are averages from 3 vessels, each of 3 plants.
# [4] = tested on: rice; assay: Action on rice (Example 23); format: in vivo; settings: leaf; for Plant height: 66 days; for Plant height relative: control 100
# Description: At a growth height of 11 to 13 cm the active ingredients were sprayed onto the leaves in the usual manner. The plants were measured after 66 days.
# [5] = tested on: Triticum aestivum; assay: Growth height of young cereal plants (Example 11, Table A); format: in vivo
# Description: (§3) The vessels used for the experiments were plastic pots having a volume of 1,130 cm^3 (Table A) or paraffined paper cups having a volume of 170 cm^3 (Table B). The pots and cups were filled with a sandy loam. The seeds of the test plants-separated by species-were sown shallow. Preemergence treatment (soil treatment) was effected immediately after sowing and before germination of the seeds. Seeds lying on the surface came into contact with the active ingredients. Postemergence treatment (leaf treatment) took place at an average growth height of the plants (depending on the rate of growth) of from 6 to 10 cm. The substances were suspended, emulsified or dissolved in water as diluent and applied by means of fine nozzles. The vessels were kept in the greenhouse in a temperature range of 12° C. to 25° C., and were regularly sprinkler irrigated for the duration of the experiment. The observation period was 6 to 8 weeks.
# [6] = tested on: Hordeum vulgare; assay: as above; format: in vivo; settings: soil treatment
# Description: as §3
# [7] = tested on: wheat; assay: Growth height of wheat, greenhouse (Example 7); format: in vivo, wheat (Opal variety); settings: for Plant height relative: control 100
# Description: as §1, §2
# [8] = tested on: rye; assay: Growth height of rye, greenhouse (Example 8); format: in vivo, rye (Petkuser); settings: for Plant height relative: control 100
# Description: as §1, §2
# [9] = tested on: spring barley; assay: Stem length, lateral shoots and yield in spring barley (Example 12); format: in vivo; settings: 3 kg/ha
# Description: To examine the effect of the various substances on spring barley up to the maturity stage of the plants, an experiment was carried out in large pots. The plants were grown in quartz sand (fertilized with 2 g N as ammonium nitrate in 3 doses, 1 g P2 O5 as secondary sodium phosphate, 1.5 g K2 O as potassium sulfate, 0.5 g MgO as magnesium sulfate, 10 ml of a solution of trace elements, and 10 mg of iron as an iron complex). […] The treated plants were up to 10% shorter than the control, and yields were also slightly up.
# [10] = tested on: sunflowers; assay: Action on sunflowers (Example 24); format: in vivo; settings: for Plant height relative: control 100
# Description: The active ingredients were applied both to the soil and to the leaves.
# [11] = tested on: Euphorbia geniculata; assay: Growth-regulating action, preemergence, greenhouse (Example 35, Table 2); format: in vivo; settings: for growth height relative: control 100
# Description: as §3
# (§4) Further experiments were carried out in the greenhouse under the condition described in Example 11. […] As the plants which were examined liked the warmth (Eupghorbia geniculate, Arachis hypogaea, Cynodon dactylon), they were kept at from 20°-30° C. Cynodon dactylon from seed was cut once and the young growth treated postemergence.
# [12] = tested on: Arachis hypogaea; assay: Growth-regulating action, postemergence, greenhouse (Example 35, Table 1); format: in vivo; settings: for growth height relative: control 100
# Description: as §3, §4
# [13] = tested on: Cynodon dactylon; assay: as above; format: in vivo; settings: for growth height relative: control 100
# Description: as §3, §4
structure (smiles),measurement,setting,value
"C[N+](C)(C)CCCl.[Cl-] [CCC, N-2-chloroethyl-N,N,N-trimethylammonium chloride, reference compound]",Plant height,"[1]; leaf, 0.125 kg/ha",29.0 cm
same,Plant height relative,"[1]; leaf, 0.125 kg/ha",96.7
same,Plant height,"[1]; leaf, 0.5 kg/ha",28.5 cm
same,Plant height relative,"[1]; leaf, 0.5 kg/ha",95.0
same,Plant height,"[1]; leaf, 1.0 kg/ha",26.5 cm
same,Plant height relative,"[1]; leaf, 1.0 kg/ha",88.3
same,Plant height,"[1]; leaf, 2.0 kg/ha",27.0 cm
same,Plant height relative,"[1]; leaf, 2.0 kg/ha",90.0
same,Plant height,"[1]; leaf, 4.0 kg/ha",27.0 cm
same,Plant height relative,"[1]; leaf, 4.0 kg/ha",90.0
same,Plant height,"[1]; soil, 0.5 kg/ha",28.0 cm
same,Plant height relative,"[1]; soil, 0.5 kg/ha",88.9
same,Plant height,"[1]; soil, 1.0 kg/ha",27.0 cm
same,Plant height relative,"[1]; soil, 1.0 kg/ha",85.7
same,Plant height,"[1]; soil, 2.0 kg/ha",26.0 cm
same,Plant height relative,"[1]; soil, 2.0 kg/ha",82.5
same,Plant height,"[1]; soil, 6.0 kg/ha",25.0 cm
same,Plant height relative,"[1]; soil, 6.0 kg/ha",79.4
same,Plant height,"[2]; leaf, 0.125 kg/ha",28.0 cm
same,Plant height relative,"[2]; leaf, 0.125 kg/ha",100
same,Plant height,"[2]; leaf, 0.5 kg/ha",28.5 cm
same,Plant height relative,"[2]; leaf, 0.5 kg/ha",101.8
same,Plant height,"[2]; leaf, 1.0 kg/ha",28.0 cm
same,Plant height relative,"[2]; leaf, 1.0 kg/ha",100
same,Plant height,"[2]; leaf, 2.0 kg/ha",27.0 cm
same,Plant height relative,"[2]; leaf, 2.0 kg/ha",96.4
same,Plant height,"[2]; leaf, 4.0 kg/ha",25.5 cm
same,Plant height relative,"[2]; leaf, 4.0 kg/ha",91.1
same,Plant height,"[2]; soil, 0.5 kg/ha",28.0 cm
same,Plant height relative,"[2]; soil, 0.5 kg/ha",100
same,Plant height,"[2]; soil, 1.0 kg/ha",28.0 cm
same,Plant height relative,"[2]; soil, 1.0 kg/ha",100
same,Plant height,"[2]; soil, 2.0 kg/ha",27.0 cm
same,Plant height relative,"[2]; soil, 2.0 kg/ha",96.4
same,Plant height,"[2]; soil, 6.0 kg/ha",26.0 cm
same,Plant height relative,"[2]; soil, 6.0 kg/ha",92.9
same,Shoot length,[3]; 0.3 ppm,36.2 cm
same,No. of squares per vessel (3 plants),[3]; 0.3 ppm,0
same,Shoot length rel.,[3]; 0.3 ppm,76.7
same,Shoot length,[3]; 1.25 ppm,34.8 cm
same,No. of squares per vessel (3 plants),[3]; 1.25 ppm,0
same,Shoot length rel.,[3]; 1.25 ppm,73.8
same,buds / squares,[3]; 4 week growth period,withered in the nascent stage and dropped off
same,Plant height,[4]; 1.0 kg/ha,38.0 cm
same,Plant height relative,[4]; 1.0 kg/ha,93.6
same,Plant height,[4]; 2.0 kg/ha,40.5 cm
same,Plant height relative,[4]; 2.0 kg/ha,99.8
same,Plant height,[4]; 4.0 kg/ha,38.5 cm
same,Plant height relative,[4]; 4.0 kg/ha,94.8
same,Plant height,[4]; 6.0 kg/ha,40.0 cm
same,Plant height relative,[4]; 6.0 kg/ha,98.5
same,Growth height,"[5]; leaf treatment, 0.5 kg/ha",40 cm
same,Growth height,"[5]; leaf treatment, 1.0 kg/ha",40 cm
same,Growth height,"[5]; leaf treatment, 2.0 kg/ha",40 cm
same,Growth height,"[5]; soil treatment, 0.5 kg/ha",40 cm
same,Growth height,"[5]; soil treatment, 1.0 kg/ha",40 cm
same,Growth height,"[5]; soil treatment, 2.0 kg/ha",33 cm
same,Growth height,[6]; 0.5 kg/ha,36 cm
same,Growth height,[6]; 1.0 kg/ha,31 cm
same,Growth height,[6]; 2.0 kg/ha,33 cm
same,Plant height,"[7]; leaf, 0.125 kg/ha",28.0 cm
same,Plant height relative,"[7]; leaf, 0.125 kg/ha",93.3
same,Plant height,"[7]; leaf, 0.5 kg/ha",26.0 cm
same,Plant height relative,"[7]; leaf, 0.5 kg/ha",86.7
same,Plant height,"[7]; leaf, 1.0 kg/ha",26.0 cm
same,Plant height relative,"[7]; leaf, 1.0 kg/ha",86.7
same,Plant height,"[7]; leaf, 2.0 kg/ha",23.0 cm
same,Plant height relative,"[7]; leaf, 2.0 kg/ha",76.7
same,Plant height,"[7]; leaf, 4.0 kg/ha",23.0 cm
same,Plant height relative,"[7]; leaf, 4.0 kg/ha",76.7
same,Plant height,"[7]; soil, 0.5 kg/ha",26.0 cm
same,Plant height relative,"[7]; soil, 0.5 kg/ha",83.9
same,Plant height,"[7]; soil, 1.0 kg/ha",24.5 cm
same,Plant height relative,"[7]; soil, 1.0 kg/ha",79.0
same,Plant height,"[7]; soil, 2.0 kg/ha",22.5 cm
same,Plant height relative,"[7]; soil, 2.0 kg/ha",72.6
same,Plant height,"[7]; soil, 6.0 kg/ha",22.0 cm
same,Plant height relative,"[7]; soil, 6.0 kg/ha",71.0
same,Plant height,"[8]; leaf, 0.125 kg/ha",29.0 cm
same,Plant height relative,"[8]; leaf, 0.125 kg/ha",98.3
same,Plant height,"[8]; leaf, 0.5 kg/ha",28.0 cm
same,Plant height relative,"[8]; leaf, 0.5 kg/ha",94.9
same,Plant height,"[8]; leaf, 1.0 kg/ha",27.5 cm
same,Plant height relative,"[8]; leaf, 1.0 kg/ha",93.2
same,Plant height,"[8]; leaf, 2.0 kg/ha",27.5 cm
same,Plant height relative,"[8]; leaf, 2.0 kg/ha",93.2
same,Plant height,"[8]; leaf, 4.0 kg/ha",29.0 cm
same,Plant height relative,"[8]; leaf, 4.0 kg/ha",98.3
same,Plant height,"[8]; soil, 0.5 kg/ha",28.0 cm
same,Plant height relative,"[8]; soil, 0.5 kg/ha",96.6
same,Plant height,"[8]; soil, 1.0 kg/ha",27.5 cm
same,Plant height relative,"[8]; soil, 1.0 kg/ha",94.8
same,Plant height,"[8]; soil, 2.0 kg/ha",28.0 cm
same,Plant height relative,"[8]; soil, 2.0 kg/ha",96.6
same,Plant height,"[8]; soil, 6.0 kg/ha",26.5 cm
same,Plant height relative,"[8]; soil, 6.0 kg/ha",91.4
same,Ear weight,[9],95.0 g
same,No. of lateral shoots,[9],99
same,Stem length,[9],74.2 cm
same,Ear weight relative,[9]; control 100,105.1
same,No. of lateral shoots relative,[9]; control 100,106.5
same,Stem length relative,[9]; control 100,96.5
same,Plant height,"[10]; leaf, 1.5 kg/ha",38.0 cm
same,Plant height relative,"[10]; leaf, 1.5 kg/ha",99
same,Plant height,"[10]; leaf, 6.0 kg/ha",32.5 cm
same,Plant height relative,"[10]; leaf, 6.0 kg/ha",85
same,Plant height,"[10]; soil, 3.0 kg/ha",40.0 cm
same,Plant height relative,"[10]; soil, 3.0 kg/ha",110
same,Plant height,"[10]; soil, 12.0 kg/ha",36.0 cm
same,Plant height relative,"[10]; soil, 12.0 kg/ha",99
"C[N+](C)(C)CCCl [[ClCH2CH2N(CH3⊕)3]Cl⊖, reference compound]",Growth height,[11]; 0.25 kg/ha,10 cm
same,growth height relative,[11]; 0.25 kg/ha,91
same,Growth height,[11]; 0.5 kg/ha,10 cm
same,growth height relative,[11]; 0.5 kg/ha,91
same,Growth height,[11]; 1.0 kg/ha,9 cm
same,growth height relative,[11]; 1.0 kg/ha,82
same,Growth height,[12]; 0.5 kg/ha,16 cm
same,growth height relative,[12]; 0.5 kg/ha,100
same,Growth height,[12]; 2.0 kg/ha,14 cm
same,growth height relative,[12]; 2.0 kg/ha,87
same,Growth height,[13]; 0.5 kg/ha,9 cm
same,growth height relative,[13]; 0.5 kg/ha,82
same,Growth height,[13]; 2.0 kg/ha,9 cm
same,growth height relative,[13]; 2.0 kg/ha,82
FC(F)(F)c1cccc(N2C3C4CC(C5N=NC45)C32)c1 (stereo not shown) [drawing 438],Growth height,[11]; 0.25 kg/ha,6 cm
same,growth height relative,[11]; 0.25 kg/ha,54
same,Growth height,[11]; 0.5 kg/ha,5 cm
same,growth height relative,[11]; 0.5 kg/ha,45
same,Growth height,[11]; 1.0 kg/ha,3 cm
same,growth height relative,[11]; 1.0 kg/ha,27
CN(C)NC(=O)CCC(=O)O [drawing 439],Growth height,[11]; 0.25 kg/ha,12 cm
same,growth height relative,[11]; 0.25 kg/ha,109
same,Growth height,[11]; 0.5 kg/ha,12 cm
same,growth height relative,[11]; 0.5 kg/ha,109
same,Growth height,[11]; 1.0 kg/ha,10 cm
same,growth height relative,[11]; 1.0 kg/ha,91
